The numbers were not newly measured in patent publication US10053407B2, “Crystalline cannabidivarin” (S&B Pharma, Inc., priority 2016, dated 2018), which cites them from elsewhere.

This data set relates to epilepsy. The settings on record: animal studies; 50 and 100 mg/kg, delivered intra-peritoneally; cannabidivarin prepared by non-synthetic methods.

`C=C(C)[C@@H]1CCC(C)=C[C@H]1c1c(O)cc(CCC)cc1O` [cannabidivarin]: the mortality result was “effective in reducing mortality”.
